Data: patent US4851385A, “LHRH antagonist analogs having low histamine-release activity” (Indiana University Foundation, priority 1987, dated 1989)
Where a SMILES comes first, the peptide text is derived from it. [ ]: non-standard residue; d: D form. dPhe(4-Cl) = N[C@H](Cc1ccc(Cl)cc1)C(=O)O; d2Nal = N[C@H](Cc1ccc2ccccc2c1)C(=O)O

Tests used:
[1] = system: histamine release; conditions: cited from earlier work
[2] = system: rat mast cells; conditions: mast cell supernatants assayed concomitantly for lactic dehydrogenase
Excerpt: The ED50 values of Table I (mean effective dose from dose response curves), are expressed in μg/ml. […] For routine testing, mast cells were not purified.

[3] = system: rat; test: Standard antiovulatory assay (Corbin and Beattie); type: in vivo
Description: Antiovulatory activity was determined by standard antiovulatory assays conducted by the method described by Corbin and Beattie, Endocrine Research Communications 2 1 (1975) and results are given in Table I.

[4] = system: rat mast cells; test: In vitro histamine releasing activity assay (rat peritoneal mast cell suspension, fluorometric histamine assay); type: cell-based; conditions: mean effective dose from dose response curves, 15 min at 37° C., duplicate or triplicate, cells from at least three rats
Description: The in vitro histamine release activity of the analogs was assayed by the method described below and the results are given in Table I.
A suspension of rat mast cells was added to increasing concentrations of peptide and the mixture was incubated for a few minutes followed by centrifugation to collect the histamine in the supernatant. A PIPES (piperazine-N,N'-bis[2-ethanesulfonic acid]) medium buffered at pH 7.4 containing NaCl119 mM, KCl5 mM, PIPES 25mM, NaOH 40 mM, glucose 5.6 mM, CaCl2 1 mM and 0.1% bovine serum albumin was used. This was designated as PIPES AC. Peptides were dissolved in double distilled H2 O at a concentration of 2 mg ml and stored at -20° C. They were thawed just prior to testing, duluted in PIPES AC and prewarmed for 5 min. at 37° C. Peptides studied were stable to heating at 56° C. for 2 hr., and to freezing and thawing.
Peritoneal cells were collected from male Sprague-Dawley rats weighing 200 to 250 gm and purchased from Harlan (Madison, Wis.). After euthanasia by CO2, the peritoneal cavity was washed with 50 ml PIPES AC medium containing 20 units of heparin. Following centrifugation at 200×g for 8 min. at 4° C., cells were washed again and finally resuspended to a concentration of 8 to 24×10^5 total leukocytes/ml in PIPES AC. This suspension contained approximately 5-10% mast cells. […]

CC(=O)N[C@H](Cc1ccc2ccccc2c1)C(=O)N[C@H](Cc1ccc(Cl)cc1)C(=O)N[C@H](Cc1c[nH]c2ccccc12)C(=O)N[C@@H](CO)C(=O)N[C@@H](Cc1ccc(O)cc1)C(=O)N[C@H](CCCNC(=N)N)C(=O)N[C@@H](CC(C)C)C(=O)N[C@@H](CCCNC(=N)N)C(=O)N1CCC[C@H]1C(=O)N[C@H](C)C(N)=O [Compound 1, [N-Ac-D-Nal(2)^1, D-p-Cl-Phe^2, D-Trp^3, D-Arg^6, D-Ala^10] LHRH] (Ac-[d2Nal][dPhe(4-Cl)][dW]SY[dR]LRP[dA]-NH2)
histamine releasing activity (in words) ([1]; Karten and Rivier 1986): potent histamine releasing anlog

CC(C)C[C@H](NC(=O)CNC(=O)[C@H](Cc1ccc(O)cc1)NC(=O)[C@H](CO)NC(=O)[C@H](Cc1c[nH]c2ccccc12)NC(=O)[C@H](Cc1cnc[nH]1)NC(=O)[C@@H]1CCC(=O)N1)C(=O)N[C@@H](CCCNC(=N)N)C(=O)N1CCC[C@H]1C(=O)NCC(N)=O [LHRH, luteinizing hormone-releasing hormone]
cell toxicity by release of lactic dehydrogenase [2]: no evidence seen of cell toxicity

[Ac-2-D-Nal^1, α-Me-4-C1-D-Phe^2, D-Trp^3, Arg^5, D-Tyr^6, D-Ala^10 ] LHRH
times less potent in histamine releasing activity than the synthetic D-Arg6 antagonists ([1]; Roeske et al. 1985): 20-40 times

[Ac-D-2-Nal^1, D-4-C1-Phe^2, D-Trp^3, D-N^ε -Heptyl Lys, Nε-Heptyl Lys^8, D-Ala^10 ]LHRH
antiovulatory activity (in words) ([3]; N-alkylation of Lys 6 and 8 with a 7-carbon moiety): lowers antiovulatory activity markedly

[N--Ac--D-Nal(2)^1,D-C--α-Me--pCl--Phe^2,D-Pal(3)^3,D-Arg^6,hArg(Et2)^8,D-Ala^10 ]LHRH [Compound 2]
Ovulation Inhibition, Corn Oil, ED100 ([3]; corn oil vehicle, ≥ = significant reduction in rats ovulating but ED100 not achieved at the dose, ≥≥ = inactive at the dose tested): 1.0 ug/rat
In Vitro Histamine Release ED50 [4]: 4.9 µg/mL

[N-Ac-D-Nal(2)^1, D-pC1-Phe^2, D-Pal^3, Arg^5, D-Tyr^6, D-Ala^10 ]LHRH
mean effective dose for histamine release (known analog) ([1]; from Roeske et al. 1985): about 4.0 ug/ml
